“And” between values parts separate entries of the source, which are not always exact repeats. Equal entries are not always repeated.
Key:
Assay type in all cases: physicochemical
[1] = Measurement of particle diameter distribution (laser diffraction, dry measurement, Mastersizer 2000); conditions: for Particle Diameter Distribution D50 / Particle Diameter Distribution D90: dry measurement, volume basis
Description: In the present invention, D50 and D90 are indices for defining particle diameter distribution. Particle diameter distribution is usually called particle size distribution. Particles are divided into groups along with their size with appropriate intervals, and weight (volume) or particle number of the particles belonging to each group is measured to obtain the particle number (frequency) of each group. Taking the particle number (frequency) along the ordinate and taking the particle diameter along the abscissa, a particle diameter distribution is shown as a histogram, frequency curve, cumulative curve or the like. In the present invention, frequency was calculated based on volume. In the particle diameter distribution obtained in such a manner, D50 means the particle diameter at the point where the volume which is cumulatively measured from smaller particles reaches 50%, that is, the point where the cumulative frequency of the volume distribution reaches 50%. D90 means the particle diameter at the point where the volume which is cumulatively measured from smaller particles reaches 90%, that is, the point where the cumulative frequency of the volume distribution reaches 90%. Cumulative frequency (%) of particles which have a smaller diameter than a specified particle diameter can also be calculated from such a distribution chart.
Measurement of the particle diameter distribution of the crystalline finely-ground particles according to the present invention may be carried out with a commercially available apparatus using laser diffraction/scattering based on Mie Theory. For example, the measurement is carried out using a commercially available apparatus such as Malvern (registered trademark) Mastersizer Laser Diffraction Analyzer (Malvern Instruments Ltd). This analyzer irradiates He—Ne laser beam and blue light-emitting diode on particles to obtain a light scattering pattern which occurs on a detector by the irradiation, and then analyzes the light scattering pattern according to Mie Theory to determine the particle diameter distribution. […] An example of the measurement condition is as follows, which was used in Evaluation 1 of the present invention.
• Apparatus: Laser diffraction-based particle size distribution analyzer Mastersizer 2000 (Malvern) • Dry measurement unit: Scircco 2000 • Refractive Index of Samples: Real part; 1.810, Imaginary part; 0 • Time for Sample Measurement: 1 second • Time for Background Measurement: 5 seconds • Pressure: 2.0 bar • Feed Rate: 40% • Analysis Model: Single narrow mode • Calculation Sensitivity Enhanced • Particle Shape Irregular • Analysis Range: 0.020 to 2000 μm • Basis of Size Distribution Measurement: Volume
The particle diameter distribution of the subject compound was measured by dry measurement using a particle size distribution analyzer (Mastersizer 2000, manufactured by Malvern). D50 and D90 were calculated as an index of the particle diameter distribution.

[2] = Check of crystalline state and measurement of degree of crystallinity by powder X-ray diffraction; conditions: for Degree of Crystallinity: powder X-ray diffraction, Xc=(Sc/(Sc+Sa))×100
Description: The degree of crystallinity of the crystalline finely-ground particles according to the present invention is calculated from the integrated intensity ratio of crystalline peaks and amorphous halo which are extracted from an X-ray diffraction pattern obtained by powder X-ray diffraction measurement.
The powder X-ray diffraction measurement may be carried out by using, for example, a powder X-ray diffractometer (2200/RINT Ultima+PC) manufactured by Rigaku as described in Evaluation 2 of the present invention. In preparation of a measurement sample, 100 mg of a sample material is filled in a glass sample plate (0.2 mm depth) in non-destructive condition, and the surface of the sample material is leveled out using a glass plate to obtain a measurement sample. An example of the measurement condition is as follows, which was used in the present invention.
The degree of crystallinity may be calculated by a known analysis method using diffraction patterns of a sample material and sample plate alone (without a sample material) and a difference pattern thereof. For example, using a powder X-ray diffraction pattern analysis software JADE5.0 produced by MDI, which is a commercially available analysis software, a degree of crystallinity may be calculated as follows.
• (1) A difference pattern of the diffraction patterns of a sample material and sample plate alone is smoothed (Savitzky-Goray filter: 19 points). • (2) For a display area of the difference pattern, the x-axis: diffraction angle (2θ) is set between 2 deg and 90 deg, and the y-axis: diffraction intensity (Counts) is set between 0 and 500. • (3) Points are set at diffraction angles of […], 65 and 90 deg, respectively, and a straight line parallel to the x-axis is drawn such that the line is contact with the difference diffraction pattern at a range of 65 deg to 90 deg. The area below the line is determined as a background. • (4) The background is subtracted. • (5) An integrated intensity at a range of 4 deg to 60 deg is calculated (which corresponds to a sum of the integrated intensity of crystalline peaks and an amorphous halo: Sc+Sa) • (6) Points are set at diffraction angles of 2, 7, 18, 26, 30, 35, 59, 65 and 90 deg, respectively. At 2, 65 and 90 deg, the diffraction intensity is set as 0, and at 7, 18, 26, 30, 35 and 59 deg, an approximation by a cubic spline is made such that the approximation formula is in contact with the difference pattern obtained after the subtraction of the background, thereby estimating an amorphous halo. • (7) The amorphous halo is subtracted. • (8) The integrated intensity at a range of 4 deg to 60 deg is calculated (which corresponds to the integrated intensity of the crystalline peaks: Sc). • (9) A degree of crystallinity is calculated according to the following equation. Xc=(Sc/(Sc+Sa))×100 Equation • Xc: Degree of crystallinity (%) • Sc: Integrated intensity of the crystalline peaks • Sa: Integrated intensity of the amorphous halo
For check of the crystalline state and measurement of the degree of crystallinity, powder X-ray diffraction measurement was carried out using a powder X-ray diffraction analyzer (2200/RINT Ultima+PC) manufactured by Rigaku.

[3] = Storage stability (1): content of pharmaceutical active substance by HPLC, 60° C./75% RH opened
Description: For comparison of storage stability, the ground pharmaceutical active substance of Example 6 (crystallinity 88%) which was ground with a jet mill pulverizer Co-jet (α-mkII: manufactured by Seishin Enterprise) and that of Comparative Example 7 (crystallinity 73%) which was ground with a mortar and pestle were left under the storage condition of 60° C./75% RH opened, and the content of the pharmaceutical active substance was analyzed by HPLC 0.5 and 2 months after the start of the storage (Table 6).

[4] = 60° C./75% RH opened, 0.5-Month Later
[5] = 60° C./75% RH opened, 2-Month Later

Structure (SMILES)	Cumulative Frequency of Volume Distribution Which Is Occupied by Particles with Volume-Based Particle Diameter 15 (μm) or Less [1] [%]	Particle Diameter Distribution D50 [1] [μm]	Particle Diameter Distribution D90 [1]	Degree of Crystallinity [2] [%]	crystalline state by powder X-ray diffraction ([2]; Eight hours after grinding with ball mill)	Content of Pharmaceutical Active Substance by HPLC [3, 4] [%]	Degree of Decrease Based on Start of Storage [3, 4]	Content of Pharmaceutical Active Substance by HPLC [3, 5] [%]	Degree of Decrease Based on Start of Storage [3, 5]	Content of Pharmaceutical Active Substance by HPLC ([3]; At Start of Storage) [%]
O=C1c2ccccc2C(=O)N1[C@@H]1CC[C@@]2(O)[C@H]3Cc4ccc(O)c5c4[C@@]2(CCN3CC2CC2)[C@H]1O5 [Comparative Example 1, N-(17-cyclopropylmethyl-4,5α-epoxy-3,14-dihydroxy-morphinan-6β-yl)-phthalimide]	23.3	32.4	110 μm	97	–	–	–	–	–	–
O=C1c2ccccc2C(=O)N1[C@@H]1CC[C@@]2(O)[C@H]3Cc4ccc(O)c5c4[C@@]2(CCN3CC2CC2)[C@H]1O5 [Comparative Example 3, N-(17-cyclopropylmethyl-4,5α-epoxy-3,14-dihydroxy-morphinan-6β-yl)-phthalimide]	–	–	–	–	converted into an amorphous material	–	–	–	–	–
O=C1c2ccccc2C(=O)N1[C@@H]1CC[C@@]2(O)[C@H]3Cc4ccc(O)c5c4[C@@]2(CCN3CC2CC2)[C@H]1O5 [Comparative Example 7, N-(17-cyclopropylmethyl-4,5α-epoxy-3,14-dihydroxy-morphinan-6β-yl)-phthalimide]	–	–	–	–	–	98.85	1.64	98.51	2.13	99.30
O=C1c2ccccc2C(=O)N1[C@@H]1CC[C@@]2(O)[C@H]3Cc4ccc(O)c5c4[C@@]2(CCN3CC2CC2)[C@H]1O5 [Example 1, N-(17-cyclopropylmethyl-4,5α-epoxy-3,14-dihydroxy-morphinan-6β-yl)-phthalimide]	–	4.25	9.14 μm	89	–	–	–	–	–	–
O=C1c2ccccc2C(=O)N1[C@@H]1CC[C@@]2(O)[C@H]3Cc4ccc(O)c5c4[C@@]2(CCN3CC2CC2)[C@H]1O5 [Example 3, N-(17-cyclopropylmethyl-4,5α-epoxy-3,14-dihydroxy-morphinan-6β-yl)-phthalimide]	70.8	9.89	29.4 μm and 28.4 μm	94	–	–	–	–	–	–
O=C1c2ccccc2C(=O)N1[C@@H]1CC[C@@]2(O)[C@H]3Cc4ccc(O)c5c4[C@@]2(CCN3CC2CC2)[C@H]1O5 [Example 4, N-(17-cyclopropylmethyl-4,5α-epoxy-3,14-dihydroxy-morphinan-6β-yl)-phthalimide]	51.7	14.6	47.8 μm	96	–	–	–	–	–	–
O=C1c2ccccc2C(=O)N1[C@@H]1CC[C@@]2(O)[C@H]3Cc4ccc(O)c5c4[C@@]2(CCN3CC2CC2)[C@H]1O5 [Example 5, N-(17-cyclopropylmethyl-4,5α-epoxy-3,14-dihydroxy-morphinan-6β-yl)-phthalimide]	–	7.83	16.0 μm	90	–	–	–	–	–	–
O=C1c2ccccc2C(=O)N1[C@@H]1CC[C@@]2(O)[C@H]3Cc4ccc(O)c5c4[C@@]2(CCN3CC2CC2)[C@H]1O5 [Example 6, N-(17-cyclopropylmethyl-4,5α-epoxy-3,14-dihydroxy-morphinan-6β-yl)-phthalimide]	–	5.13	11.2 μm	–	–	99.15	1.39	99.09	1.49	99.39
O=C1c2ccccc2C(=O)N1[C@@H]1CC[C@@]2(O)[C@H]3Cc4ccc(O)c5c4[C@@]2(CCN3CC2CC2)[C@H]1O5 [Example 7, N-(17-cyclopropylmethyl-4,5α-epoxy-3,14-dihydroxy-morphinan-6β-yl)-phthalimide]	–	5.67	16.1 μm	87	–	–	–	–	–	–
O=C1c2ccccc2C(=O)N1[C@@H]1CC[C@@]2(O)[C@H]3Cc4ccc(O)c5c4[C@@]2(CCN3CC2CC2)[C@H]1O5 [Example 8, N-(17-cyclopropylmethyl-4,5α-epoxy-3,14-dihydroxy-morphinan-6β-yl)-phthalimide]	–	11.8	35.3 μm	92	–	–	–	–	–	–
O=C1c2ccccc2C(=O)N1[C@@H]1CC[C@@]2(O)[C@H]3Cc4ccc(O)c5c4[C@@]2(CCN3CC2CC2)[C@H]1O5 [Example 9, N-(17-cyclopropylmethyl-4,5α-epoxy-3,14-dihydroxy-morphinan-6β-yl)-phthalimide]	–	11.5	30.9 μm	89	–	–	–	–	–	–

— US8198446B2, “Crystalline micropowder particles” (Toray Industries, Inc., priority 2007, dated 2012)
